Data taken from paper PMC5999399 (Journal of medicinal chemistry, 2017).

Columns and labels:
[1] = biological target: T1, human MC1R (hMC1R) (Homo sapiens, UniProt Q01726); settings: [125I]NDP-α-MSH displacement at 10 μM; ref previously published data; cited from earlier work
[2] = biological target: T2, human MC5R (hMC5R) (Homo sapiens, UniProt P33032); settings: ref previously published data, cited from earlier work; for hMC5R % BE: [125I]NDP-α-MSH displacement at 10 μM
[3] = biological target: T3, human MC3R (hMC3R) (Homo sapiens, UniProt P41968); settings: ref previously published data, cited from earlier work; for hMC3R % max effect: cAMP at 10 μM, in relation to MT-II
T3 sequence (P41968 whole entry): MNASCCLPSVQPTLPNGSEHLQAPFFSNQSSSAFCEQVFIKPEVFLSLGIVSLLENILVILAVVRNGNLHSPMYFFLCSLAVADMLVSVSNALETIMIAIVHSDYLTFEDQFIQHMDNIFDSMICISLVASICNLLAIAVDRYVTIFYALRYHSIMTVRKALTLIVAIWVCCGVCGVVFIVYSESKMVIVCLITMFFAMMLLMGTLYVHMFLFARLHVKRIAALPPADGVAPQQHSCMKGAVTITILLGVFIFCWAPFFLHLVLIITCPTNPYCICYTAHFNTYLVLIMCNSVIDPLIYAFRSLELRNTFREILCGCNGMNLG

[4] = biological target: T3, human MC3R (hMC3R); settings: [125I]NDP-α-MSH displacement at 10 μM; ref previously published data; cited from earlier work
[5] = biological target: T2, human MC5R (hMC5R); settings: cAMP at 10 μM, in relation to MT-II; ref previously published data; cited from earlier work
[6] = biological target: T1, human MC1R (hMC1R); settings: cAMP at 10 μM, in relation to MT-II; ref previously published data; cited from earlier work
[7] = biological target: T4, human MC4R (hMC4R) (Homo sapiens, UniProt P32245); settings: [125I]NDP-α-MSH displacement at 10 μM; ref previously published data; cited from earlier work
T4 sequence (P32245 whole entry): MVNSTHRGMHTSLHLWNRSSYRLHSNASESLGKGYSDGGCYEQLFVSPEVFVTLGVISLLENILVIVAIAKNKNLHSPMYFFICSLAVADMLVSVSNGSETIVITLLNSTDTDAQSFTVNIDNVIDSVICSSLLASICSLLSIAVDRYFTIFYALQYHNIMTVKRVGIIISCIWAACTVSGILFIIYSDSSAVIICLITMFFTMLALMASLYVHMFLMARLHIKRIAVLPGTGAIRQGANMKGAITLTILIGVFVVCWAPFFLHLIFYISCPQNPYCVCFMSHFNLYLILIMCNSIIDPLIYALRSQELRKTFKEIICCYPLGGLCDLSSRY

[8] = biological target: T4, human MC4R (hMC4R); settings: cAMP at 10 μM, in relation to MT-II; ref previously published data; cited from earlier work
[9] = biological target: T1, human MC1R (hMC1R); experiment: Adenylate cyclase; format: cell-based; settings: EC50 ratio

T1 sequence (Q01726 whole entry): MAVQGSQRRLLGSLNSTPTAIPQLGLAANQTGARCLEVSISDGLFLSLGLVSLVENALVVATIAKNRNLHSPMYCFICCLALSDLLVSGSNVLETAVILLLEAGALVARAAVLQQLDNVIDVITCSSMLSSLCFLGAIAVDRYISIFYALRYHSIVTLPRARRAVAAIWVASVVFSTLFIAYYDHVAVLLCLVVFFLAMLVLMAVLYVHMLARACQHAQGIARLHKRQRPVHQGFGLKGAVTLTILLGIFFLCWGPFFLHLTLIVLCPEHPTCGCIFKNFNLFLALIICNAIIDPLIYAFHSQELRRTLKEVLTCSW
T2 sequence (P33032 whole entry): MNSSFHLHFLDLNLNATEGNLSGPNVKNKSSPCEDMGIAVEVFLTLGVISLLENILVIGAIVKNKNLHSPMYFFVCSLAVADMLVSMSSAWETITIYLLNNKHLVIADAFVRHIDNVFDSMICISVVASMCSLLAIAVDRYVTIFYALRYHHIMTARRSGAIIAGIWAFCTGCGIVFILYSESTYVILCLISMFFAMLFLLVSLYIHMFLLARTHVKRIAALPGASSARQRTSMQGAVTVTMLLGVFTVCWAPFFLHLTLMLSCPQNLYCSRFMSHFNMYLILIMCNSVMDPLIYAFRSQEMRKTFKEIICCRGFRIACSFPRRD

Substance | hMC1R % BE [1] | hMC5R % BE [2] | hMC3R % max effect [3] | hMC3R % BE [4] | hMC5R % max effect [5] | hMC1R % max effect [6] | hMC4R % BE [7] | hMC4R % max effect [8] | IC50 ([2]; read-out: hMC5R IC50, 50% specific binding) | EC50 ([3]; read-out: hMC3R EC50, cAMP accumulation) | increase in potency to hMC1R compared to γ-MSH [9]
Ac-Ser-Tyr-Ser-Met-Glu-His-Phe-Arg-Trp-Gly-Lys-Pro-Val-NH2 [Compound 14] | 100% | 100% | 100% | 100% | 100% | 100% | – | – | – | – | –
Ac-Tyr^1-Val^2-Nle^3-Gly^4-His^5-D-Phe^6-Arg^7-Trp^8-Asp^9-Arg^10-Phe^11-Gly^12-NH2 [Compound 13] | 100% | 100% | – | 100% | 100% | 100% | 100% | 100% | – | – | –
H-Tyr-Val-Nle-Gly-His-D-Nal(2)-Arg-D-Trp-Asp-Arg-Phe-Gly-NH2 [Compound 1] | – | 100% | 6% | 100% | 6% | – | – | – | 3.5 ± 0.5 nM | 300 ± 6 nM | –
H-Tyr^1-Val^2-Met^3-Gly^4-His^5-Phe^6-Arg^7-Trp^8–Asp^9-Arg^10-Phe^11-Gly^12-NH2 [Compound 12] | 100% | 100% | – | 100% | – | 100% | 100% | 76% | – | – | 3 fold
